How the values were obtained:
EGFR WT = EGFR WT (Homo sapiens, UniProt P00533); assay: HTRF-based EGFR biochemical assay, WT; conditions: 100 μM ATP, enzyme 5 nM
EGFR L858R = EGFR L858R (Homo sapiens, UniProt P00533, L858R); assay: HTRF-based EGFR biochemical assay, L858R; conditions: 100 μM ATP, enzyme 0.1 nM
Method: (§1) EGFR biochemical activity measurements were carried out using the homogeneous time-resolved fluorescence (HTRF) assay (Cisbio). Inhibitors and DMSO normalizations were first dispensed to empty black low-volume 384-well plates (Corning) with D300 digital liquid dispenser (HP). All reactions were carried out at room temperature and solutions were added to plates with a Multidrop Combi Reagent Dispenser (ThermoFisher). The reaction mixture (10 μL final volume) contained 1 μM tyrosine kinase peptide-biotin substrate and mutant EGFR in a reaction buffer (50 mM HEPES pH 7.0, 5 mM MgCl2, 1 mM MnCl2, 0.01% BSA, 2 mM TCEP, 0.1 mM NaVO4). […] Enzyme reaction solution (2× concentrations, 5 μL) was added to 384-well plates containing compounds and incubated for 30 mins. Enzyme reactions were initiated with the addition of 5 μL of ATP to a final concentration of 100 μM and reacted for 20 mins.

EGFR L858R/T790M = EGFR L858R/T790M (Homo sapiens, UniProt P00533, L858R/T790M); assay: HTRF-based EGFR biochemical assay, L858R/T790M; conditions: 100 μM ATP, enzyme 0.02 nM
Method: as §1

EGFR L858R/T790M/C797S = EGFR L858R/T790M/C797S (Homo sapiens, UniProt P00533, C797S/L858R/T790M); assay: HTRF-based EGFR biochemical assay, L858R/T790M/C797S; conditions: 100 μM ATP, enzyme 0.02 nM
Method: as §1

WT EGFR Ba/F3 cells = WT EGFR Ba/F3 cells (Homo sapiens, UniProt P00533, cells depend on it, form not given); assay: Ba/F3 cell proliferation (Cell Titer Glo), WT; assay type: cell-based, murine; conditions: Ba/F3, 72 hours, value in parentheses, meaning not explained, read-out: WT, inhibition of growth (value in parentheses)
Sequence of WT EGFR Ba/F3 cells (P00533 whole entry, stated change not applied): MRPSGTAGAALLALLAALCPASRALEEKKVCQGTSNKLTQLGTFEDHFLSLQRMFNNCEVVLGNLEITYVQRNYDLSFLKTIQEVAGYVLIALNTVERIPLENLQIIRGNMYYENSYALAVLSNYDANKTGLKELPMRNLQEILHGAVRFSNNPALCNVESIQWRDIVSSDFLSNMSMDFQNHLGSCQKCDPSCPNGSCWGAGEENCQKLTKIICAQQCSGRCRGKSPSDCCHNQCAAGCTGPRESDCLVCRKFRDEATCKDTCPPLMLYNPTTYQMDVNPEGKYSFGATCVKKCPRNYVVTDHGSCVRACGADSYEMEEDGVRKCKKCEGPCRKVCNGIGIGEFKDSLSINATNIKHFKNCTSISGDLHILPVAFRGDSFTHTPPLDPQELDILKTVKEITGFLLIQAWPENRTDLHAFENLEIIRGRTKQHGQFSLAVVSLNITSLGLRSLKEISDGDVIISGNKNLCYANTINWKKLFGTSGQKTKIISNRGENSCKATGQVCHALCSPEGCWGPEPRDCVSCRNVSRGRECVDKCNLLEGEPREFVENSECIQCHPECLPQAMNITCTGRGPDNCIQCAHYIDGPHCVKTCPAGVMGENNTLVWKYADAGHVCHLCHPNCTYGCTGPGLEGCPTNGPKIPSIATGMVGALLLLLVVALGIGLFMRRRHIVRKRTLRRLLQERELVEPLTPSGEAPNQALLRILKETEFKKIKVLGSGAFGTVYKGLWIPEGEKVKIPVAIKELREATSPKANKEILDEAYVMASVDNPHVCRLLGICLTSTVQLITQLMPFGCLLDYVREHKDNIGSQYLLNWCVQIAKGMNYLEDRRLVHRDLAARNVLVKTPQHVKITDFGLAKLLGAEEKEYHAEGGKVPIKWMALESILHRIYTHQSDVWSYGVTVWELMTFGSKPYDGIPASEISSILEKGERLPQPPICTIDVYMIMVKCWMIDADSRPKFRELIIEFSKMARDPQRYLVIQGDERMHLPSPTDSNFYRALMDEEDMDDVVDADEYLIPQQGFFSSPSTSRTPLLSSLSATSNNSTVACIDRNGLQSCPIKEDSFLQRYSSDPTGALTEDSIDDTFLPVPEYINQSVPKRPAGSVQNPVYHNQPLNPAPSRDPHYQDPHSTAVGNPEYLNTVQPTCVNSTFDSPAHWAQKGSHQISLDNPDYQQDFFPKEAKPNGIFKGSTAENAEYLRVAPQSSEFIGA
Method: (§2) 100 units/mL streptomycin. The EGFR I941R mutation was introduced via site directed mutagenesis using the Quick Change Site-Directed Mutagenesis kit (Stratagene; La Jolla, CA) according to the manufacturer's instructions. All constructs were confirmed by DNA sequencing. The constructs were shuttled into the retroviral vector JP1540 using the Cre-recombination system (Agilent Technologies, Santa Clara, CA). […] Stable clones were obtained by selection in puromycin (2 μg/ml).
(§3) Growth and inhibition of growth was assessed by the Cell Titer Glo assay (Promega, Madison, WI) and was performed according to the manufacturer's instructions. The Cell Titer Glo assay is a luminescence-based method used to determine the number of viable cells based on quantitation of the ATP present, which is directly proportional to the amount of metabolically active cells present. […] All experimental points were set up in triplicates in 384-well plates and all experiments were repeated at least three times. […] The curves were fitted using a non-linear regression model with a sigmoidal dose response.

EGFR L858R Ba/F3 cells = EGFR L858R Ba/F3 cells (Homo sapiens, UniProt P00533, L858R, cells depend on it); assay: Ba/F3 cell proliferation (Cell Titer Glo), L858R; assay type: cell-based, murine; conditions: Ba/F3, 72 hours, value in parentheses, meaning not explained, read-out: L858R, inhibition of growth (value in parentheses)
Sequence of EGFR L858R Ba/F3 cells (P00533 whole entry L858R): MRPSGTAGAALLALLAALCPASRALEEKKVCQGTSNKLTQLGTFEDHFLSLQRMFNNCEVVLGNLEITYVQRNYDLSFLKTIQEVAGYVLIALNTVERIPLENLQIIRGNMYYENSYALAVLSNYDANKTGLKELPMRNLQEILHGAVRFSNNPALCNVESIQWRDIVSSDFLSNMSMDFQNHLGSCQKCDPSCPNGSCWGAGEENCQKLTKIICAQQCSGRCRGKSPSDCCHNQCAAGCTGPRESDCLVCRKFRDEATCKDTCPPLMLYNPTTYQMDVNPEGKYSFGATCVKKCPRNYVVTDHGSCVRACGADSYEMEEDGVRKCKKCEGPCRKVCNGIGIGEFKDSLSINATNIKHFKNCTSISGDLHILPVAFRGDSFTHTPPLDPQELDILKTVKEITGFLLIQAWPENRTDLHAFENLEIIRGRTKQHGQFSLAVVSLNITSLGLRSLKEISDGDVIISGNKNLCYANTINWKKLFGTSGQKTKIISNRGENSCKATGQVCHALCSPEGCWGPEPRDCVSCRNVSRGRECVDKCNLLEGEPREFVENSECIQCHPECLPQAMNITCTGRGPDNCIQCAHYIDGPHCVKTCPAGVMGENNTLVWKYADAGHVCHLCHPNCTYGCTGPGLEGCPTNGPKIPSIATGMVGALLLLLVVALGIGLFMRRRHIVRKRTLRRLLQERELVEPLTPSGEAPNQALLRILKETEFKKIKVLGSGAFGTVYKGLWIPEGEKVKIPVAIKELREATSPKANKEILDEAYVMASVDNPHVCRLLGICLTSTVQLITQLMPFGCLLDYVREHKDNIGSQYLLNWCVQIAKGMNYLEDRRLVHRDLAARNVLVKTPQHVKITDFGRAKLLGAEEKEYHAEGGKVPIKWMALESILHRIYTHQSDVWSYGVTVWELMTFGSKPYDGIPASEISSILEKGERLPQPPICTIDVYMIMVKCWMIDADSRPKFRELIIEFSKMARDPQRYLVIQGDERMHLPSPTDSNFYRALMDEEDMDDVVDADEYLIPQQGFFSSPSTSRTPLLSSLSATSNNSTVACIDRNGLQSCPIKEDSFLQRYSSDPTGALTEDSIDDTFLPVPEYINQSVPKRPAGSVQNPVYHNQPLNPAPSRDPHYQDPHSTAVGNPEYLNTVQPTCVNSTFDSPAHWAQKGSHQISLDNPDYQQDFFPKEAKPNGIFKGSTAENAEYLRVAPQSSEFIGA
Method: as §2, §3

[1] = molecular target: EGFR L858R/T790M Ba/F3 cells (Homo sapiens, UniProt P00533, T790M/L858R, cells depend on it); assay: Ba/F3 cell proliferation (Cell Titer Glo), L858R/T790M; assay type: cell-based, murine; conditions: Ba/F3, 72 hours, value in parentheses, meaning not explained, read-out: L858R/T790M, inhibition of growth (value in parentheses)
Sequence of EGFR L858R/T790M Ba/F3 cells (P00533 whole entry T790M/L858R): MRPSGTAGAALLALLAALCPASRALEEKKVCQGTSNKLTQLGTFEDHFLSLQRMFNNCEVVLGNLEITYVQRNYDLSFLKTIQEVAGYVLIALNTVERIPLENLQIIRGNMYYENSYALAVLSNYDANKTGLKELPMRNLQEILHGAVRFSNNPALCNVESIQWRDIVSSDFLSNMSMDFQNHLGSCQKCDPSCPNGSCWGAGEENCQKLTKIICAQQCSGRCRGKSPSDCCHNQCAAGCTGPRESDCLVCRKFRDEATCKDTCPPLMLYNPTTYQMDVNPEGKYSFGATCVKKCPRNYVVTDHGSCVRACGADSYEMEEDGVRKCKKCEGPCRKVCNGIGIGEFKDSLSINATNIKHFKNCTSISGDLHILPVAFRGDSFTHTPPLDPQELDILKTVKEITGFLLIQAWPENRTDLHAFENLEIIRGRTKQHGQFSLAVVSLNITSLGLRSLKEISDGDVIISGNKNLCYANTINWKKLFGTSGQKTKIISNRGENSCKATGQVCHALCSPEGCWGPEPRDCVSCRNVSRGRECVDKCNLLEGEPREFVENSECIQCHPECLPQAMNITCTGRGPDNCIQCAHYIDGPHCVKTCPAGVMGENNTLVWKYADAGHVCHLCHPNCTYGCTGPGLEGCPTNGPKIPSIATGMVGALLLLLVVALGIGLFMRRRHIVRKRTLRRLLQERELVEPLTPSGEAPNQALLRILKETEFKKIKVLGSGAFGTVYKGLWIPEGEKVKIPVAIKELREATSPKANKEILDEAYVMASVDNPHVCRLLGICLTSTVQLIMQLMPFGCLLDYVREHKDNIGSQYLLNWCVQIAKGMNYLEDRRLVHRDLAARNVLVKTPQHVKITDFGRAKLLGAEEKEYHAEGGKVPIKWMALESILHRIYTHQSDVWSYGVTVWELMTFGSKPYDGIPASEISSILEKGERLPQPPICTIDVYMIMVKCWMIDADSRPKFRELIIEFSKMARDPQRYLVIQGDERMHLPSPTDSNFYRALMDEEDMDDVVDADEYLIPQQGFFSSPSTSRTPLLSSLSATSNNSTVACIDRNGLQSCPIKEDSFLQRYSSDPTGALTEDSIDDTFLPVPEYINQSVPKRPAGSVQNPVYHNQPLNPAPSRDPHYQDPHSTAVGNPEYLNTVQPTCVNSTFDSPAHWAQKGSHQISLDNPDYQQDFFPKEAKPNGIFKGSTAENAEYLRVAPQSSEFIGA
Method: as §2, §3

[2] = molecular target: EGFR L858R/T790M/C797S Ba/F3 cells (Homo sapiens, UniProt P00533, T790M/C797S/L858R, cells depend on it); assay: Ba/F3 cell proliferation (Cell Titer Glo), L858R/T790M/C797S; assay type: cell-based, murine; conditions: Ba/F3, 72 hours, value in parentheses, meaning not explained, read-out: L858R/T790M/C797S, inhibition of growth (value in parentheses)
Sequence of EGFR L858R/T790M/C797S Ba/F3 cells (P00533 whole entry T790M/C797S/L858R): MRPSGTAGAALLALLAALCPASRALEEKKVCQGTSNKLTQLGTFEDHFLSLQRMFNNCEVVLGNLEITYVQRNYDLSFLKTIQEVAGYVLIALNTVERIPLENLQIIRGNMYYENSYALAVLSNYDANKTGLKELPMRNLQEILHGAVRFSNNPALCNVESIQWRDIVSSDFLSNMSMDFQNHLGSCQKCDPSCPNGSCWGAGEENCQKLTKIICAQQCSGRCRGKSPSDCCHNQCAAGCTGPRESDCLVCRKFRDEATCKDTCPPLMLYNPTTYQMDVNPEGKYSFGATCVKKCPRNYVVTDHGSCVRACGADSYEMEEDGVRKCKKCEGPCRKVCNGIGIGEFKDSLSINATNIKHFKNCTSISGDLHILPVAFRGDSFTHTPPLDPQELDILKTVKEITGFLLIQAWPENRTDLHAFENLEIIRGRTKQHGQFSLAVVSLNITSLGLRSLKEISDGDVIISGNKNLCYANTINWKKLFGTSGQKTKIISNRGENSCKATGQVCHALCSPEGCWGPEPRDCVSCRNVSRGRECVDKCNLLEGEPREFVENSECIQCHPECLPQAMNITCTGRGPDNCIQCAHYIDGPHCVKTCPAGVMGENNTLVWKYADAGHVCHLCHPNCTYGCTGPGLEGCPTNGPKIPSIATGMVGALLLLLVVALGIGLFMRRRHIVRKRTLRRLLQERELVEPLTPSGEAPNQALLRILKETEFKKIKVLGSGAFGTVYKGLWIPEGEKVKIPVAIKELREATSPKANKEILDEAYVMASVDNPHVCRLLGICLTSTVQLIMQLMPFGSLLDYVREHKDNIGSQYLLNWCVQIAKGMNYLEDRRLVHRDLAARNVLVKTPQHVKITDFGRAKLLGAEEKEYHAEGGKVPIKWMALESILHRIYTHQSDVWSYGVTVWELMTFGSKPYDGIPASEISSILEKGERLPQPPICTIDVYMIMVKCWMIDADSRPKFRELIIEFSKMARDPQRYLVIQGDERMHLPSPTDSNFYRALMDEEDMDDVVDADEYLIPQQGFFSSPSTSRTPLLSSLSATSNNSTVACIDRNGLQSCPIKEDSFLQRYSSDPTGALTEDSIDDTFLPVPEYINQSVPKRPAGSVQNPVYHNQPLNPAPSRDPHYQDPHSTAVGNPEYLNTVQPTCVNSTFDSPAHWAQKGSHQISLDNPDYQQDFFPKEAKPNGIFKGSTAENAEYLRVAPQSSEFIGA
Method: as §2, §3

| SMILES | IC50 (EGFR WT) | IC50 (EGFR L858R) | IC50 (EGFR L858R/T790M) | IC50 (EGFR L858R/T790M/C797S) | EC50 (WT EGFR Ba/F3 cells) | EC50 (EGFR L858R Ba/F3 cells) | EC50 [1] | EC50 [2] |
| --- | --- | --- | --- | --- | --- | --- | --- | --- |
| CSc1nc(-c2cccc(NC(=O)c3ccccc3CN3Cc4ccccc4C3=O)c2)c(-c2ccnc(NC(C)=O)c2)[nH]1 [Compound 047, N-(3-(5-(2-acetamidopyridin-4-yl)-2-(methylthio)-1H-imidazol-4-yl)phenyl)-2-((1-oxoisoindolin-2-yl)methyl)benzamide] | > 100 µM | 0.096 µM | 0.759 µM | 0.61 µM | > 4.3 µM | > 10 µM | > 10 µM | > 10 µM |
| C=CC(=O)Nc1ccc(OC)c(Nc2cc(-c3[nH]c(SC)nc3-c3cccc(NC(=O)c4ccccc4CN4Cc5ccccc5C4=O)c3)ccn2)c1 [Compound 064, N-(3-(5-(2-((5-acrylamido-2-methoxyphenyl)amino)pyridin-4-yl)-2-(methylthio)-1H-imidazol-4-yl)phenyl)-2-((1-oxoisoindolin-2-yl)methyl)benzamide] | 0.701 µM | 0.011 µM | 0.008 µM | 0.206 µM | > 4 µM | 0.5 µM | 2.5 µM | > 10 µM |
| CSc1nc(-c2cccc(NC(=O)c3ccccc3CN3C(=O)c4ccccc4C3=O)c2)c(-c2ccnc(Nc3ccccc3)c2)[nH]1 [Compound 067, 2-((1,3-dioxoisoindolin-2-yl)methyl)-N-(3-(2-(methylthio)-5-(2-(phenylamino)pyridin-4-yl)-1H-imidazol-4-yl)phenyl)benzamide] |  |  |  |  | > 3.3 µM | > 8.7 µM | > 10 µM | > 10 µM |
| CSc1nc(-c2cccc(NC(=O)c3c(F)ccc(O)c3CN3C(=O)c4ccccc4C3=O)c2)c(-c2ccnc(Nc3ccccc3)c2)[nH]1 [Compound 068, 2-((1,3-dioxoisoindolin-2-yl)methyl)-6-fluoro-3-hydroxy-N-(3-(2-(methylthio)-5-(2-(phenylamino)pyridin-4-yl)-1H-imidazol-4-yl)phenyl)benzamide] |  |  |  |  | > 5.6 µM | > 10 µM | > 10 µM | > 10 µM |
| CSc1nc(-c2cccc(NC(=O)c3ccccc3CN3Cc4ccccc4C3=O)c2)c(-c2ccnc(Nc3ccccc3)c2)[nH]1 [Compound 069, N-(3-(2-(methylthio)-5-(2-(phenylamino)pyridin-4-yl)-1H-imidazol-4-yl)phenyl)-2-((1-oxoisoindolin-2-yl)methyl)benzamide] |  |  |  |  | > 2.1 µM | > 5.3 µM | > 5.6 µM | > 10 µM |
